Experimental data as given in patent US20220395553A1, “CXCR4 ANTAGONIST PEPTIDES” (COHBAR, INC., priority 2019, published 2022).
Square brackets hold non-standard residues; d marks the D form. Peptide text beside a SMILES is read from it.

Experiments:
[1] = Cell viability, PrestoBlue assay; type: cell-based; conditions: human
Description: The effect of the peptides on cell viability can be assessed in cultured cells using suitable assay of viability such as the PrestoBlue® assay (Thermo Fisher Scientific, Waltham, Mass.). Peptides were initially prepared as 10 mM stock in DMSO and tested at a final concentration of 10 μM (0.1% DMSO). […] PrestoBlue Assay Reagent was purchased from Thermo Fisher Scientific. A172 human brain glioblastoma cell line was purchased from American Type Culture Collection (Manassas, Va.). A172 cells were grown in DMEM supplemented with 10% FBS with 100 IU/ml penicillin and 100 μg/ml streptomycin. Cultures were maintained at 37° C. in a humidified atmosphere of 5% CO2/95% air. A172 cells were seeded at 8,000 cells per well on 96-well plates. […] Cell viability was determined using a PrestoBlue Assay reagent […] according to the manufacturer's instructions. Absorption for each sample well on the plate was measured using a Cytation 3 plate reader at 560 nm and 590 nm (BioTek, Winooski, Vt.). Activity was calculated relative to 0.1% DMSO untreated control. Treatment with 0.1% DMSO alone was used as the cell viability activity control. The relative standard deviation of the DMSO control was <5%.

[2] = test system: A172 human brain glioblastoma cell line; assay: Caspase 3/7 activity (Caspase-Glo 3/7) in cultured cells; type: cell-based; conditions: peptide 10 μM, 18-20 hours, relative to 0.1% DMSO control
Description: The effect of the peptides on cell death/survival can be assessed using a caspase-3/7 assay in cultured cells. Peptides were dissolved at 10 mM in DMSO as stock solutions for use at a final concentration of 10 μM. […] Caspase-Glo 3/7 Assay Reagent was purchased from Promega (Madison, Wis.). A172 human brain glioblastoma cell line was purchased from American Type Culture Collection (Manassas, Va.). A172 cells were grown in DMEM supplemented with 10% FBS with 100 IU/ml penicillin and 100 μg/ml streptomycin. Cultures were maintained at 37° C. in a humidified atmosphere of 5% CO2/95% air. A172 cells were seeded at 8,000 cells per well on 96-well plates. […] Caspase 3/7 activity was determined using a Caspase-Glo 3/7 Assay kit (Promega) according to the manufacturer's instructions. Luminescence for each sample well on the plate was measured using a Cytation 3 plate reader (BioTek, Winooski, Vt.). Activity was calculated relative to 0.1% DMSO control.

[3] = test system: SH-SY5Y Neuroblastoma Cells; assay: ATP levels (CellTiter-Glo); type: cell-based, human; conditions: peptide 10 μM, 18-20 hours, relative to 0.1% DMSO treated control
Description: The effect of the peptides on cellular metabolism can be assessed using an assay of ATP levels in cultured cells such as human neuroblastoma cells. Peptides were initially prepared as 10 mM stock in DMSO and used at a final concentration of 10 μM (0.1% DMSO). […] CellTiter-Glo® Assay kit was purchased from Promega. SH-SY5Y human bone marrow neuroblastoma cell line was purchased from American Type Culture Collection (Manassas, Va.) and licensed from Memorial Sloan-Kettering Cancer Center (New York, N.Y.). SH-SY5Y cells were grown in DMEM/F12 medium supplemented with 10% FBS with 100 IU/ml penicillin and 100 μg/ml streptomycin. Cultures were maintained at 37° C. in a humidified atmosphere of 5% CO2/95% air. SH-SY5Y cells were seeded at 30,000 cells per well on 96-well plates. […] ATP levels were determined using a CellTiter-Glo Assay kit (Promega) according to the manufacturer's instructions. Luminescence for each sample well on the plate was measured using a Cytation 3 plate reader (BioTek, Winooski, Vt.). Activity was calculated relative to 0.1% DMSO treated control. The relative standard deviation of the result for the 0.1% DMSO treated control was <5%.

Rat H-4-II-E Cells = assay: TBHP-induced reactive oxygen species (DCFDA); type: cell-based; conditions: peptide 10 μM 18-20 hours, then TBHP 100 μM 1 hour; relative to TBHP control
Description: The protective or synergistic effect of the peptides on cellular levels of reactive oxygen species (ROS) induced by oxidative stress can be assessed using an assay of ROS in cultured cells exposed to a suitable oxidative stress. Peptides were initially prepared as 10 mM stock in DMSO and tested at a final concentration of 10 μM (0.1% DMSO). […] TBHP was used at final concentration of […]. Sulforaphane was used at a final concentration of 10 uM as a protective antioxidant control against TBHP induced ROS production. DCFDA Cellular ROS Detection Assay kit was purchased from […]. H-4-II-E rat liver hepatoma cell line was purchased from American Type Culture Collection (Manassas, Va.). H-4-II-E cells were grown in DMEM supplemented with 10% FBS with 100 IU/ml penicillin and 100 μg/ml streptomycin. Cultures were maintained at 37° C. in a humidified atmosphere of 5% CO2/95% air. H-4-II-E cells were seeded at 15,000-20,000 cells per well on 96-well plates. The next day cells were incubated with test peptides at 10 μM in 0.1% DMSO or sulforaphane at 10 uM and maintained at 37° C. in a humidified atmosphere of 5% CO2/95% air for 18-20 hours. After 18-20 hours of incubation the cells were loaded with DCFDA for 45 min. TBHP at 100 μM was then added to the appropriate wells for 1 hour. ROS activity was determined using a DCFDA Cellular ROS Detection Assay kit (Abcam) according to the manufacturer's instructions. Fluorescence in each sample well on the plate was measured using a Cytation 3 plate reader at Ex/Em=485/535 nm (BioTek, Winooski, Vt.). Activity was calculated relative to TBHP control. […] Activity was calculated relative to THBP treated control.

U937 cells = assay: CXCL12 mediated cell migration, U937 cells; type: cell-based, human; conditions: peptides at 10 μM (also stated 1 μM), 100 nM CXCL12, 4 hours
Description: Peptides were initially prepared as 1 mM stock in H2O and tested at a final concentration of 1 μM. […] U937 cells were resuspended in serum free media containing 0.5% bovine serum albumin (RPMI+GlutaMax (Gibco/Thermo Fisher Scientific, Gaithersburg, Md.)) at density of 5×10^6 cells/ml. […] Following the 4 hour incubation period the filter inserts were carefully removed and the migration of cells across the filter into the bottom chamber (receiver wells) was determined by measuring ATP levels using Cell TiterGlo 2.0, according to manufacturer's instructions (Promega, Madison, Wis.); luminescence measured using a Cytation 3 plate reader (BioTek, Winooski, Vt.).

## CSCC[C@H](N)C(=O)N[C@@H](CC(C)C)C(=O)N[C@@H](CCCNC(=N)N)C(=O)N[C@@H](CCCNC(=N)N)C(=O)N[C@@H](Cc1ccc(O)cc1)C(=O)N[C@@H](Cc1c[nH]cn1)C(=O)N[C@@H](Cc1c[nH]cn1)C(=O)N[C@@H](CO)C(=O)N[C@H](C(=O)N[C@@H](CCCNC(=N)N)C(=O)N[C@@H](CO)C(=O)N[C@@H](CO)C(=O)N[C@@H](CC(C)C)C(=O)N[C@@H](CCCNC(=N)N)C(=O)N1CCC[C@H]1C(=O)N[C@@H](Cc1ccc(O)cc1)C(=O)N[C@H](C(=O)N[C@@H](CCCCN)C(=O)O)[C@@H](C)O)C(C)C [compound 2] (H-MLRRYHHSVRSSLRPYTK-OH; N-terminus and C-terminus assumed)
[1]
  viability at 10 μM: 96.4%
[2]
  Caspase 3/7 Activity, Percent of Control Activity: 96.7%
[3]
  ATP Levels, % Control: 100.1%
Rat H-4-II-E Cells
  TBHP-Induced ROS, Percent of Control: 90.9%
U937 cells
  Percent Inhibition of CXCL12 Mediated Migration: 58%

## CC(C)C[C@H](NC(=O)[C@H](CO)NC(=O)[C@H](CO)NC(=O)[C@H](CCCNC(=N)N)NC(=O)[C@@H](NC(=O)[C@H](CO)NC(=O)[C@H](Cc1c[nH]cn1)NC(=O)[C@H](Cc1c[nH]cn1)NC(=O)[C@H](Cc1ccc(O)cc1)NC(=O)[C@H](CCCNC(=N)N)NC(=O)[C@H](CCCNC(=N)N)NC(=O)[C@@H](N)CC(C)C)C(C)C)C(=O)N[C@@H](CCCNC(=N)N)C(=O)N1CCC[C@H]1C(=O)N[C@@H](Cc1ccc(O)cc1)C(=O)N[C@H](C(=O)N[C@@H](CCCCN)C(=O)O)[C@@H](C)O [compound 3] (H-LRRYHHSVRSSLRPYTK-OH; N-terminus and C-terminus assumed)
[1]
  viability at 10 μM: 97.3%
[2]
  Caspase 3/7 Activity, Percent of Control Activity: 121.4%
[3]
  ATP Levels, % Control: 102.5%
Rat H-4-II-E Cells
  TBHP-Induced ROS, Percent of Control: 95.5%
U937 cells
  Percent Inhibition of CXCL12 Mediated Migration: 101%

## CC(C)C[C@H](NC(=O)[C@H](CO)NC(=O)[C@H](CO)NC(=O)[C@H](CCCNC(=N)N)NC(=O)[C@@H](NC(=O)[C@H](CO)NC(=O)[C@H](Cc1c[nH]cn1)NC(=O)[C@H](Cc1c[nH]cn1)NC(=O)[C@H](Cc1ccc(O)cc1)NC(=O)[C@H](CCCNC(=N)N)NC(=O)[C@H](CCC(=O)O)NC(=O)[C@@H](N)CC(C)C)C(C)C)C(=O)N[C@@H](CCCNC(=N)N)C(=O)N1CCC[C@H]1C(=O)N[C@@H](Cc1ccc(O)cc1)C(=O)N[C@H](C(=O)N[C@@H](CCCCN)C(=O)O)[C@@H](C)O [compound 4] (H-LERYHHSVRSSLRPYTK-OH; N-terminus and C-terminus assumed)
[1]
  viability at 10 μM: 96%
[2]
  Caspase 3/7 Activity, Percent of Control Activity: 107.7%
[3]
  ATP Levels, % Control: 98.5%
Rat H-4-II-E Cells
  TBHP-Induced ROS, Percent of Control: 95.8%
U937 cells
  Percent Inhibition of CXCL12 Mediated Migration: 98%

## CC(C)C[C@H](NC(=O)[C@H](CO)NC(=O)[C@H](CO)NC(=O)[C@H](CCCNC(=N)N)NC(=O)[C@@H](C)NC(=O)[C@H](CO)NC(=O)[C@H](Cc1c[nH]cn1)NC(=O)[C@H](Cc1c[nH]cn1)NC(=O)[C@H](Cc1ccc(O)cc1)NC(=O)[C@H](CCCNC(=N)N)NC(=O)[C@H](CCC(=O)O)NC(=O)[C@@H](N)CC(C)C)C(=O)N[C@@H](CCCNC(=N)N)C(=O)N1CCC[C@H]1C(=O)N[C@@H](Cc1ccc(O)cc1)C(=O)N[C@H](C(=O)O)[C@@H](C)O [compound 5] (H-LERYHHS[dA]RSSLRPYT-OH; N-terminus and C-terminus assumed)
[1]
  viability at 10 μM: 98.8%
[2]
  Caspase 3/7 Activity, Percent of Control Activity: 104.7%
[3]
  ATP Levels, % Control: 97.0%
Rat H-4-II-E Cells
  TBHP-Induced ROS, Percent of Control: 99.2%
U937 cells
  Percent Inhibition of CXCL12 Mediated Migration: 86%
